Measurements taken from publication PMC7248923, “A New Oleanane Type Saponin from the Aerial Parts of Nigella sativa with Anti-Oxidant and Anti-Diabetic Potential” (Molecules, 2020).

Legend:
[1] = ABTS radical scavenging assay; details: mean of three determinations ± SD; Nd = not detected; 732 nm
Description: ABTS inhibition of the isolated compounds and extracts were evaluated as described previously. Stock solution was prepared by mixing an equal volume of 7.4 mM of ABTS and 2.6 mM of potassium persulfate and kept for 24 hours before diluting with methanol. Later the solution was diluted with methanol till the absorbance at 732 nm came within the range of 0.8–1.2. To 50 µL of sample solutions of different concentration (250, 125, 100, 50 μM ) 950 μL of ABTS* was added. Absorbance was measured at 732 nm by a spectrophotometer. Ascorbic acid and Trolox, and methanol were used as a positive and negative controls, respectively. All observations were done in triplicate. Percentage inhibition was calculated from the observations. Data were presented as mean ± S.D.

[2] = DPPH radical scavenging assay; details: mean of three determinations ± SD; Nd = not detected; 30 min at 37 °C, 517 nm
Description: The DPPH activity of the isolated compounds and extracts were evaluated as described previously. Twenty μ L of samples having different concentrations of the extract (100, 500, 250, and 125 µg/mL) and isolated compounds (100, 75, 50, and 25 μ M) keeping the total volume of solution at 180 μL (0.1 mM) solution, was added in 96 well plates and incubated for 30 min at 37 °C. The observation was measured at 517nm. Each observation was done in triplicate. Ascorbic acid and Trolox were used as positive controls, while methanol was used as a negative control. Inhibition % was calculated. Data were presented as the mean ± S.D.

human recombinant PTP1B = biological target: T1, human recombinant PTP1B (Homo sapiens, UniProt P18031); assay: PTP1B inhibitory assay (pNPP substrate); type: biochemical; details: mean of three determinations ± SD, Nd = not detected, pH 6, 37 °C
T1 construct: purchased Sigma-Aldrich
T1 sequence (P18031 1-435): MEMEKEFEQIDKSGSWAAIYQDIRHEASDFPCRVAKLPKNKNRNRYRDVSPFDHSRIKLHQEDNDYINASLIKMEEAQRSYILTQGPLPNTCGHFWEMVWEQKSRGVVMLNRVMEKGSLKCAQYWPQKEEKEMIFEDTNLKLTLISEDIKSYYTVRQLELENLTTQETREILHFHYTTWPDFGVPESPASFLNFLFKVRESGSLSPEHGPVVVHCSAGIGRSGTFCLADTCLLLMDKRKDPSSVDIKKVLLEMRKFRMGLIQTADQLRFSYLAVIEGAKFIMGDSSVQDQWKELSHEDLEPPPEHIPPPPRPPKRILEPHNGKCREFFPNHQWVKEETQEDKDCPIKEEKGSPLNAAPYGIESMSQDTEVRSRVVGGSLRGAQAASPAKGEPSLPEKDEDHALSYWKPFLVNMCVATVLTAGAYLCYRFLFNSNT
Description: The inhibitory activity of the isolated compounds against human recombinant PTP1B was evaluated using p-nitrophenyl phosphate (pNPP) as a substrate. Firstly, 2 mM pNPP and PTP1B were mixed with 50 mM citrate buffer of pH 6 and 0.1 mM NaCl, 1 mM EDTA, and 1 mM DTT with or without sample keeping the final volume of the solution at 110 μL and placing them in a 96 wells plate. […] The plate was first pre-incubated for 10 min at 37 °C, and then 50 μL of pNPP in buffer was added. The plate was again incubated for 30 min at 37 °C. After that, 10 μL of 10M NaOH was added dropwise to stop the reaction. […] The inhibition percentage was calculated with the formula [( Ac−As/Ac )] × 100%, where Ac is the absorbance of control while As is the absorbance of the sample. […] Data were presented as mean ± S.D [35].

SMILES	IC50 [1] [µM]	IC50 [2] [µM]	IC50 (human recombinant PTP1B) [µM]
O=C1O[C@H]([C@@H](O)CO)C(O)=C1O [Ascorbic acid, reference compound]	82.9 ± 2	51.7 ± 0.1	–
COc1ccc2c(c1O)-c1c(O)c(OC)cc3c1[C@H](C2)[N+](C)(C)CC3 [Compound 5, magnoflorine]	139.2 ± 0.5	71 ± 0.5	–
O=c1c(OC2OC(CO)C(O)C(O)C2OC2OC(CO)C(O)C(O)C2OC2OC(CO)C(O)C(O)C2O)c(-c2ccc(O)c(O)c2)oc2cc(O)cc(O)c12 (stereo not shown) [Compound 8, quercetin sphorotrioside]	98.8 ± 0.5	35.5 ± 0.5	–
O=c1c(OC2OC(CO)C(O)C(O)C2O)c(-c2ccc(O)cc2)oc2cc(OC3OC(CO)C(O)C(O)C3O)cc(O)c12 (stereo not shown) [Compound 9, kaempferol-3,7-diglucoside]	247 ± 2.7	198 ± 2.7	–
C[C@@H]1O[C@@H](OC[C@H]2O[C@@H](Oc3c(-c4ccc(O)c(O)c4)oc4cc(O)cc(O)c4c3=O)[C@H](O)[C@@H](O)[C@@H]2O)[C@H](O)[C@H](O)[C@H]1O [Compound 11, rutin]	129 ± 0.5	39.6 ± 0.5	–
CC1OC(OC2C(OC3CCC4(C)C(CCC5(C)C4CC=C4C6CC(C)(C)CCC6(C(=O)O)CCC45C)C3(C)CO)OCC(O)C2O)C(O)C(O)C1O [Compound 12, 3-O-[α-L-rhamnopyranosyl-(1→2)-α-L-arabinopyranpsyl]hederagenin]	–	–	91.3 ± 2.5
Cc1c(C)c2c(c(C)c1O)CCC(C)(C(=O)O)O2 (stereo not shown) [Trolox, reference compound]	96.2 ± 1.5	59.4 ± 0.9	–
